Square brackets hold non-standard residues; d marks the D form. Peptide text beside a SMILES is read from it. * marks the point of attachment. Dip = N[C@H](C(=O)O)C(c1ccccc1)c1ccccc1; Ms = CS(=O)(=O)*
Experiment: Inhibition of ET-1 stimulated arachidonic acid release in rabbit renal vascular smooth muscle cells

IC50 [nM] | SMILES
14 | CC[C@H](C)[C@H](NC(=O)[C@H](CC(=O)O)NC(=O)[C@H](CCCNC(=N)N)NC(=O)[C@H](NC(C)=O)C(c1ccccc1)c1ccccc1)C(=O)N[C@H](C(=O)N[C@@H](Cc1c[nH]c2ccccc12)C(=O)O)[C@@H](C)CC [(S)-3-[(S)-2-((S)-2-Acetylamino-3,3-diphenyl-propionylamino)-5-guanidino-pentanoylamino]-N-((1S,2S)-1-{(1S,2S)-1-[(S)-1-carboxy-2-(1H-indol-3-yl)-ethylcarbamoyl]-2-methyl-butylcarbamoyl}-2-methyl-butyl)-succinamic acid]
2100 | CC[C@H](C)[C@H](NC(=O)[C@H](CC(=O)O)NC(=O)[C@H](CC(C)C)NC(=O)[C@@H](NS(C)(=O)=O)C(c1ccccc1)c1ccccc1)C(=O)N[C@H](C(=O)N[C@@H](Cc1c[nH]c2ccccc12)C(=O)O)[C@@H](C)CC [(S)-N-((1S,2S)-1-{(1S,2S)-1-[(S)-1-Carboxy-2-(1H-indol-3-yl)-ethylcarbamoyl]-2-methyl-butylcarbamoyl}-2-methyl-butyl)-3-[(S)-2-((S)-2-methanesulfonylamino-3,3-diphenyl-propionylamino)-4-methyl-pentanoylamino]-succinamic acid] (Ms-[Dip]LDIIW-OH)

Reference: BindingDB's records for doi:10.1021/jm00015a003 (Warner-Lambert, 1995)
